The text below walks through data of patent US9586928B2 (The Scripps Research Institute, priority 2011, dated 2017).

Assay [1] deals with T1, RORγ (Homo sapiens, UniProt P51449).
T1 construct: expressed in transfected cells; host or cells: HEK293T
T1 sequence (P51449 269-508 limits assumed): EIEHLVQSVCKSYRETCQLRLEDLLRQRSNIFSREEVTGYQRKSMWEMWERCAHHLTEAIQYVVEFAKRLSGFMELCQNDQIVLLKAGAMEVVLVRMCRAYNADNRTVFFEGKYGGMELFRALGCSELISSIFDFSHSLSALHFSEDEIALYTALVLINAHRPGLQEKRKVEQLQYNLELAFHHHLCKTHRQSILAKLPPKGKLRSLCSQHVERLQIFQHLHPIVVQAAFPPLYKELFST
The assay can be described thus: Gal4-RORγ LBD / UAS luciferase cotransfection assay. Conditions: 10 μM. Format: cell-based.
Procedure: (§2) The cells were treated with either DMSO or various compounds as indicated four hours after replating. Following additional 20 hour incubation, luciferase levels were assayed by one-step addition of 20 μL BriteLite (Perkin Elmer) and read using an Envision multilabel plate reader (Perkin Elmer).
Cotransfection assays were performed as previously described in HEK293 cells (Gal4 cotransfection assay or IL-17 luciferase reporter)[8]. HEK293 and the mouse lymphoma EL4 (ATCC) cells were maintained in DMEM supplemented with 10% FBS plus antibiotics (penicillin and streptomycin; Invitrogen).

In assay [2] the target is T2, RORα (Homo sapiens, UniProt P35398).
T2 construct: expressed in transfected cells; host or cells: HEK293T
T2 sequence (P35398 272-510 limits assumed): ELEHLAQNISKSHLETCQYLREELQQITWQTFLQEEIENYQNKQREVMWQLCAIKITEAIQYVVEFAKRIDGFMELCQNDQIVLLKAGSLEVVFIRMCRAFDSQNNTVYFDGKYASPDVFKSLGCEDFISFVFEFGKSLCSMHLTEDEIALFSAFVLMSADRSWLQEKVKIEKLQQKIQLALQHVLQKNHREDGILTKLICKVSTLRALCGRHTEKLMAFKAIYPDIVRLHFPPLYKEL
The assay is described as follows: Gal4-RORα LBD / UAS luciferase cotransfection assay. Type of assay: cell-based. Conditions: 10 μM.

Assay [3] concerns VP16. The assay is described as follows: Gal4 DBD-VP16 / UAS luciferase control assay. Type of assay: cell-based. To be noted: 10 μM.
Procedure: as §2
Assay [4] addresses T3, GST-RORγ (Homo sapiens, UniProt P51449).
T3 construct: 1 μg of GST-RORγ-LBD, 5 nM of [3H]T1317 as radioligand
T3 sequence (P51449 269-508 limits assumed): T1 sequence (P51449 269-508 limits assumed)
The assay can be described thus: RORγ scintillation proximity (SPA) radioligand binding assay, displacement of [3H]-T0901317. To be noted: 10 μM compound; read-out: RORγ SPA % bound = % radiolabel bound.

Assay [5] addresses T4, LXR (Homo sapiens, UniProt Q13133).
T4 sequence (Q13133 209-447 limits assumed): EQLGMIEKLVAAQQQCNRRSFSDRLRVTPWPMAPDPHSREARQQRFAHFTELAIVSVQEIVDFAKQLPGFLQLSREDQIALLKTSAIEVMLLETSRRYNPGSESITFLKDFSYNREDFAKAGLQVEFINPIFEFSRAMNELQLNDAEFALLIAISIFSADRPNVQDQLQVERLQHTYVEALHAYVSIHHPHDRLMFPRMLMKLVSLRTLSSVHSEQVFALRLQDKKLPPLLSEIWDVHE
The assay is described as follows: Gal4-LXRα / UAS luciferase cotransfection assay. Type of assay: cell-based. To be noted: 10 μM.

The subject of assay [6] is TH17 cells. Conditions: in vitro and in vivo; cited from earlier work.
The conditions of assay [7]: mouse, in vivo; cited from earlier work.
For assay [8], the system named is EL-4 cells. The assay can be described thus: Intracellular IL-17 in PMA/ionomycin stimulated EL-4 cells (flow cytometry). Format: cell-based, murine. Conditions: 5 μM, compared to vehicle treated cells. On the procedure:
(§1) The treatment of EL4 with SR2211 repressed the Il17 gene expression to a greater extent as compared to digoxin. […] In order to measure the effect of SR2211 on IL-17 production, we determined the intracellular levels of IL-17 using flow cytometry. After the stimulation of EL-4 cells with PMA/ionomycin for 3 hr, the cells were treated with BD GolgiPlug™ (protein transport inhibitor) to allow intracellular accumulation of cytokines. After 2 hr, the cells were fixed and stained to analyze the IL-17 by flow cytometry.
For intracellular cytokine staining, cells were stimulated with PMA (50 ng/Ml) and lonomycin (1 ug/ml) for 5 hrs. After 3 hrs of incubation, BD Golgiplug (BD Bioscience) was added and incubated for 2 hrs. Then, cells were fixed, permeabilized, and stained with PEIL17A Ab (BD Biosciences). Cell sorting was performed using LSRII (BD Biosciences). • 1. Ivanov, I I; McKenzie, B. S.; Zhou, L.; Tadokoro, C. E.; Lepelley, A.; Lafaille, J. J.; Cua, D. J.; Littman, D. R. (2006) The orphan nuclear receptor RORgammat directs the differentiation program of proinflammatory IL-17+ T helper cells. Cell 126, 1121-1133. • 2. Nakae, S.; Nambu, A.; Sudo. K.; Iwakura. Y. (2003) Suppression of immune induction of collagen-induced arthritis in IL-17-deficient mice. J Immunol 171, 6173-6177. • 3. Jetten. […]

The subject of assay [9] is EL-4 cells. The assay is described as follows: IL-17A and IL-23R mRNA in PMA/ionomycin stimulated EL-4 cells (real-time PCR). Type of assay: cell-based, murine. To be noted: 5 μM pre-treatment 20 hr, PMA/ionomycin stimulation. On the procedure:
as §1
One million EL-4 cells were seeded in each well of 6 well plate and incubated with 5 uM of digoxin or SR2211 or DMSO for 20 hrs. Cells were then stimulated with phorbol 12-myristate 13-acetate (PMA) (50 ng/ml; Sigma) and Ionomycin (1 ug/ml; Sigma) for 5 hours. Then, RNA was extracted with RNeasy midi kit using DNase I (Qiagen), then cDNA was synthesized with high capacity cDNA Reverse Transcription kits (Applied Biosystems). IL17A gene expression was normalized to the expression of GAPDH. IL17A, IL-23R and GAPDH primer sets were as follows: […]

On to `O=C(c1cscn1)N1CCN(Cc2ccc(-c3ccc(C(O)(C(F)(F)F)C(F)(F)F)cc3)cc2)CC1` [Compound 116, (4-((4′-(1,1,1,3,3,3-Hexafluoro-2-hydroxypropan-2-yl)-[1,1′-biphenyl]-4-yl)methyl)piperazin-1-yl)(thiazol-4-yl)methanone], for which the “RORγ repression, fold change over DMSO” value in assay [1] was 0.59 fold change over DMSO. The “RORα repression, fold change over DMSO” value in [2] stood at 0.56 fold change over DMSO. Also, in [3], the “VP16 repression, fold change over DMSO” value came out at 0.76 fold change over DMSO. The remaining activity at 10 µM in assay [4] is 76%. Further, the “LXR activation, fold change over DMSO” value in [5] is given as 0.81 fold change over DMSO.
In the case of `CC(=O)Nc1nc(C)c(S(=O)(=O)Nc2ccc(C(O)(C(F)(F)F)C(F)(F)F)cc2)s1` [SR1001, N-(5-(N-(4-(1,1,1,3,3,3-hexafluoro-2-hydroxypropan-2-yl)phenyl)sulfamoyl)-4-methylthiazol-2-yl)acetamide], the “TH17 cell differentiation and function” value in assay [6] is “effective at suppressing TH17 cell differentiation and function in vitro and in vivo”. Besides, the “onset and severity of EAE” value in [7] was “effective at delaying the onset and reducing the severity”.
Regarding `C[C@H]1O[C@@H](O[C@H]2[C@@H](O)C[C@H](O[C@H]3[C@@H](O)C[C@H](O[C@H]4CC[C@@]5(C)[C@H](CC[C@@H]6[C@@H]5C[C@@H](O)[C@]5(C)[C@@H](C7=CC(=O)OC7)CC[C@]65O)C4)O[C@@H]3C)O[C@@H]2C)C[C@H](O)[C@@H]1O` [digoxin, reference compound], in assay [8], the IL-17 intracellular staining result is recorded as “significant inhibition of IL-17 intracellular staining”. Further, in assay [9], the IL-17 gene expression result was “significant reduction in the IL-17 gene expression” and the “expression of IL-23 receptor (Il23r)” value is on record as “significantly inhibited”.
